pIC50: −log10 of the molar value.
Target: T1, human PAR4 (Homo sapiens, UniProt Q96RI0)
T1 construct: expressed in transfected cells; host or cells: HEK293 PAR4 Clone 1.2A (BMS Arctic ID 383940)
T1 sequence (Q96RI0 18-385): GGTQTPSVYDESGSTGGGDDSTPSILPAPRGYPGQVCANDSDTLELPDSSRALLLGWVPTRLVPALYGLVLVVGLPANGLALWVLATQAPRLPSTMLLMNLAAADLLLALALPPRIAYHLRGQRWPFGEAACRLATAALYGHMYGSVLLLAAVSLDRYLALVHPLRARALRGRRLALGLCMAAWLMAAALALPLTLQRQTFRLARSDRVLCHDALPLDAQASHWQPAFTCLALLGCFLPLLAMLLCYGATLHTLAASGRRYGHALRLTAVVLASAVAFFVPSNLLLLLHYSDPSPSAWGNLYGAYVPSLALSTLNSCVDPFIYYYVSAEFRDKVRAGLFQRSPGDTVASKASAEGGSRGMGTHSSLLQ
Experiment: PAR4 FLIPR assay: antagonism of agonist-peptide-induced calcium mobilization in PAR4-expressing HEK293 cells
Format: cell-based
Settings: H-Ala-Phe(4-F)-[…]NH2-induced intracellular calcium mobilization, 11-point curves

Row | SMILES | pIC50
1 | COc1cnc2c(-c3nc4cc(F)c(O[C@@H](C)[C@@H](C)OC(=O)Nc5cnc(C(=O)NCC(C)(C)O)nc5)cc4s3)cc(C)cc2n1 [Example 457, (2R,3S)-3-((5-fluoro-2-(2-methoxy-7-methylquinoxalin-5-yl)benzo[d]thiazol-6-yl)oxy)butan-2-yl (2-((2-hydroxy-2-methylpropyl)carbamoyl)pyrimidin-5-yl)carbamate] | 9.40
2 | COc1cnc2c(-c3nc4cc(F)c(O[C@@H](C)[C@@H](C)OC(=O)Nc5cnc(C(=O)NCCC(C)(C)O)nc5)cc4s3)cc(C)cc2n1 [Example 458, (2R,3S)-3-((5-fluoro-2-(2-methoxy-7-methylquinoxalin-5-yl)benzo[d]thiazol-6-yl)oxy)butan-2-yl (2-((3-hydroxy-3-methylbutyl)carbamoyl)pyrimidin-5-yl)carbamate] | 9.30
3 | COc1cnc2c(-c3nc4cc(F)c(O[C@@H](C)[C@@H](C)OC(=O)Nc5ccnc(C(=O)NCCC(C)(C)O)c5)cc4s3)cc(C)cc2n1 [Example 459, (2R,3S)-3-((5-fluoro-2-(2-methoxy-7-methylquinoxalin-5-yl)benzo[d]thiazol-6-yl)oxy)butan-2-yl (2-((3-hydroxy-3-methylbutyl)carbamoyl)pyridin-4-yl)carbamate] | 9.05
4 | COc1cnc2c(-c3nc4cc(F)c(O[C@@H](C)[C@@H](C)OC(=O)Nc5ccc(C(=O)NCC(C)(C)O)nc5)cc4s3)cc(C)cc2n1 [Example 460, (2R,3S)-3-((5-fluoro-2-(2-methoxy-7-methylquinoxalin-5-yl)benzo[d]thiazol-6-yl)oxy)butan-2-yl (6-((2-hydroxy-2-methylpropyl)carbamoyl)pyridin-3-yl)carbamate] | 9.05
5 | COc1cnc2c(-c3nc4cc(F)c(O[C@@H](C)[C@@H](C)OC(=O)Nc5ccnc(C(=O)NC[C@H](C)O)c5)cc4s3)cc(C)cc2n1 [Example 461, (2R,3S)-3-((5-fluoro-2-(2-methoxy-7-methylquinoxalin-5-yl)benzo[d]thiazol-6-yl)oxy)butan-2-yl (2-(((S)-2-hydroxypropyl)carbamoyl)pyridin-4-yl)carbamate] | 9.40
6 | COc1cnc2c(-c3nc4cc(F)c(O[C@@H](C)[C@@H](C)OC(=O)Nc5cnc(C(=O)NC[C@H](C)O)nc5)cc4s3)cc(C)cc2n1 [Example 462, (2R,3S)-3-((5-fluoro-2-(2-methoxy-7-methylquinoxalin-5-yl)benzo[d]thiazol-6-yl)oxy)butan-2-yl (2-(((S)-2-hydroxypropyl)carbamoyl)pyrimidin-5-yl)carbamate] | 9.70
7 | COc1cnc2c(-c3nc4cc(F)c(O[C@@H](C)[C@@H](C)OC(=O)Nc5cnc(C(=O)NCC6(O)CCC6)nc5)cc4s3)cc(C)cc2n1 [Example 463, (2R,3S)-3-((5-fluoro-2-(2-methoxy-7-methylquinoxalin-5-yl)benzo[d]thiazol-6-yl)oxy)butan-2-yl (2-(((1-hydroxycyclobutyl)methyl)carbamoyl)pyrimidin-5-yl)carbamate] | 9.15
8 | COc1cnc2c(-c3nc4cc(F)c(O[C@@H](C)[C@@H](C)OC(=O)Nc5ccc(C(=O)NCCC(C)(C)O)nc5)cc4s3)cc(C)cc2n1 [Example 464, (2R,3S)-3-((5-fluoro-2-(2-methoxy-7-methylquinoxalin-5-yl)benzo[d]thiazol-6-yl)oxy)butan-2-yl (6-((3-hydroxy-3-methylbutyl)carbamoyl)pyridin-3-yl)carbamate] | 8.82
9 | COc1cnc2c(-c3nc4cc(F)c(O[C@@H](C)[C@@H](C)OC(=O)Nc5ccnc(C(=O)NCC(C)(C)O)c5)cc4s3)cc(C)cc2n1 [Example 465, (2R,3S)-3-((5-fluoro-2-(2-methoxy-7-methylquinoxalin-5-yl)benzo[d]thiazol-6-yl)oxy)butan-2-yl (2-((2-hydroxy-2-methylpropyl)carbamoyl)pyridin-4-yl)carbamate] | 8.85
10 | CNC(=O)c1cc(NC(=O)O[C@H](C)[C@H](C)Oc2cc3sc(-c4cc(C)cc5nc(OC)cnc45)nc3cc2F)ccn1 [Example 466, (2R,3S)-3-((5-fluoro-2-(2-methoxy-7-methylquinoxalin-5-yl)benzo[d]thiazol-6-yl)oxy)butan-2-yl (2-(methylcarbamoyl)pyridin-4-yl)carbamate] | 9.15
11 | COc1cnc2c(-c3nc4cc(F)c(O[C@@H](C)[C@@H](C)OC(=O)Nc5ccnc(C(=O)N(C)C)c5)cc4s3)cc(C)cc2n1 [Example 467, (2R,3S)-3-((5-fluoro-2-(2-methoxy-7-methylquinoxalin-5-yl)benzo[d]thiazol-6-yl)oxy)butan-2-yl (2-(dimethylcarbamoyl)pyridin-4-yl)carbamate] | 8.72
12 | COc1cnc2c(-c3nc4cc(F)c(O[C@@H](C)[C@@H](C)OC(=O)Nc5cnc(C(=O)N(C)C)nc5)cc4s3)cc(C)cc2n1 [Example 468, (2R,3S)-3-((5-fluoro-2-(2-methoxy-7-methylquinoxalin-5-yl)benzo[d]thiazol-6-yl)oxy)butan-2-yl (2-(dimethylcarbamoyl)pyrimidin-5-yl)carbamate] | 9.10
13 | COc1cnc2c(-c3nc4cc(F)c(OC[C@@H](C)OC(=O)Nc5ccc(C(=O)NCC6(CO)COC6)nc5)cc4s3)cc(C)cc2n1 [Example 470, (R)-1-((5-fluoro-2-(2-methoxy-7-methylquinoxalin-5-yl)benzo[d]thiazol-6-yl)oxy)propan-2-yl (6-(((3-(hydroxymethyl)oxetan-3-yl)methyl)carbamoyl)pyridin-3-yl)carbamate] | 8.66
14 | COc1cnc2c(-c3nc4cc(F)c(OC[C@@H](C)OC(=O)Nc5ccc(C(=O)N(C)CCO)nc5)cc4s3)cc(C)cc2n1 [Example 471, (R)-1-((5-fluoro-2-(2-methoxy-7-methylquinoxalin-5-yl)benzo[d]thiazol-6-yl)oxy)propan-2-yl (6-((2-hydroxyethyl)(methyl)carbamoyl)pyridin-3-yl)carbamate] | 8.28
15 | COc1cnc2c(-c3nc4cc(F)c(OC[C@@H](C)OC(=O)Nc5ccc(C(=O)NCC(C)(C)CO)nc5)cc4s3)cc(C)cc2n1 [Example 472, (R)-1-((5-fluoro-2-(2-methoxy-7-methylquinoxalin-5-yl)benzo[d]thiazol-6-yl)oxy)propan-2-yl (6-((3-hydroxy-2,2-dimethylpropyl)carbamoyl)pyridin-3-yl)carbamate] | 8.34
16 | COc1cnc2c(-c3nc4cc(F)c(OC[C@@H](C)OC(=O)Nc5ccc(C(=O)NCC6(CO)CCC6)nc5)cc4s3)cc(C)cc2n1 [Example 473, (R)-1-((5-fluoro-2-(2-methoxy-7-methylquinoxalin-5-yl)benzo[d]thiazol-6-yl)oxy)propan-2-yl (6-(((1-(hydroxymethyl)cyclobutyl)methyl)carbamoyl)pyridin-3-yl)carbamate] | 8.47
17 | COc1cnc2c(-c3nc4cc(F)c(OC[C@@H](C)OC(=O)Nc5ccc(C(=O)N(C)CC(C)(C)O)nc5)cc4s3)cc(C)cc2n1 [Example 474, (R)-1-((5-fluoro-2-(2-methoxy-7-methylquinoxalin-5-yl)benzo[d]thiazol-6-yl)oxy)propan-2-yl (6-((2-hydroxy-2-methylpropyl)(methyl)carbamoyl)pyridin-3-yl)carbamate] | 7.96
18 | COc1cnc2c(-c3nc4cc(F)c(OC[C@@H](C)OC(=O)Nc5ccc(C(=O)N6CC[C@@H](O)C6)nc5)cc4s3)cc(C)cc2n1 [Example 475] | 8.32
19 | COc1cnc2c(-c3nc4cc(F)c(OC[C@@H](C)OC(=O)Nc5ccc(C(=O)N6CC[C@@H](CO)C6)nc5)cc4s3)cc(C)cc2n1 [Example 476, (R)-1-((5-fluoro-2-(2-methoxy-7-methylquinoxalin-5-yl)benzo[d]thiazol-6-yl)oxy)propan-2-yl (6-((R)-3-(hydroxymethyl)pyrrolidine-1-carbonyl)pyridin-3-yl)carbamate] | 8.00
20 | COc1cnc2c(-c3nc4cc(F)c(OC[C@@H](C)OC(=O)Nc5ccc(C(=O)N6CCO[C@H](CO)C6)nc5)cc4s3)cc(C)cc2n1 [Example 477, (R)-1-((5-fluoro-2-(2-methoxy-7-methylquinoxalin-5-yl)benzo[d]thiazol-6-yl)oxy)propan-2-yl (6-((S)-2-(hydroxymethyl)morpholine-4-carbonyl)pyridin-3-yl)carbamate] | 8.52
21 | COc1cnc2c(-c3nc4cc(F)c(OC[C@@H](C)OC(=O)Nc5ccc(C(=O)N6CC[C@H](O)C6)nc5)cc4s3)cc(C)cc2n1 [Example 478, (R)-1-((5-fluoro-2-(2-methoxy-7-methylquinoxalin-5-yl)benzo[d]thiazol-6-yl)oxy)propan-2-yl (6-((S)-3-hydroxypyrrolidine-1-carbonyl)pyridin-3-yl)carbamate] | 8.04
22 | COc1cnc2c(-c3nc4cc(F)c(OC[C@@H](C)OC(=O)Nc5ccc(C(=O)N6CC[C@H](CO)C6)nc5)cc4s3)cc(C)cc2n1 [Example 479, (R)-1-((5-fluoro-2-(2-methoxy-7-methylquinoxalin-5-yl)benzo[d]thiazol-6-yl)oxy)propan-2-yl (6-((S)-3-(hydroxymethyl)pyrrolidine-1-carbonyl)pyridin-3-yl)carbamate] | 8.85
23 | COc1cnc2c(-c3nc4cc(F)c(OC[C@@H](C)OC(=O)Nc5ccc(C(=O)N6CCO[C@@H](CO)C6)nc5)cc4s3)cc(C)cc2n1 [Example 480, (R)-1-((5-fluoro-2-(2-methoxy-7-methylquinoxalin-5-yl)benzo[d]thiazol-6-yl)oxy)propan-2-yl (6-((R)-2-(hydroxymethyl)morpholine-4-carbonyl)pyridin-3-yl)carbamate] | 8.47

Reference: patent publication US12060347B2 (BRISTOL-MYERS SQUIBB COMPANY, priority 2016, dated 2024)
